{
  "source": "paper PMC4309172",
  "about": "“Binding of a fluorescence reporter and a ligand to an odorant-binding protein of the yellow fever mosquito, Aedes aegypti” (F1000Research, 2015)",
  "key": {"[1]": {"molecular_target": "T1, AaegOBP1 (odorant-binding protein, also named AaegOBP39) (Aedes aegypti, UniProt Q6Y2R8)", "T1 construct": "recombinant AaegOBP1 (AY189223), periplasmic expression in BL21(DE3), purified and delipidated", "T1 sequence (Q6Y2R8 19-143)": "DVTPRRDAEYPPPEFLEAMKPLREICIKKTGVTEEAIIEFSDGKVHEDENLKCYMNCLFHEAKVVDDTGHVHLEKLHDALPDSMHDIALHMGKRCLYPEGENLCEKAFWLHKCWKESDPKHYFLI", "experiment": "direct fluorescence titration with NPN, pH […] (Kd […] at pH […])"}, "[2]": {"molecular_target": "T1, AaegOBP1 (odorant-binding protein, also named AaegOBP39)", "experiment": "NPN fluorescence displacement/quenching, pH […]; Kd from decreasing phase only ([…]), fluorescence rises at higher doses"}},
  "data": [
    {"smiles": "c1ccc(Nc2cccc3ccccc23)cc1", "note": "[NPN, N-phenyl-1-naphthylamine]", "values": [
      {"measurement": "Kd", "setting": "[1]", "value": "3.31 ± 0.48", "unit": "µM"}
    ]},
    {"smiles": "CCCCCCCCCC[C@H](OC(C)=O)[C@H]1CCCC(=O)O1", "note": "(racemic) [MOP, (5 R,6 S)-6-acetoxy-5-hexadecanolide]", "values": [
      {"measurement": "Kd", "setting": "[2]", "value": "2.64 ± 0.16", "unit": "µM"}
    ]}
  ]
}
